In US20100331297A1, “MODULATION OF PROTEIN TRAFFICKING” (FOLDRX PHARMACEUTICALS, INC., priority 2007, published 2010):

Legend:
ΔF508 CFTR [1] = target: T1, ΔF508 CFTR (Homo sapiens, UniProt P13569, DEL508-508); test: Corrector activity, YFP halide (iodide) quenching assay in FRT cells expressing ΔF508 CFTR; format: cell-based; parameters: expressed in transfected cells; host or cells: Fischer rat thyroid (FRT) cells; conditions: FRT cells ΔF508 CFTR/YFP, 24 hours with compound at 37° C., forskolin and genistein; read-out: Corrector EC50
Outline: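 FRT cells co-expressing ΔF508 CFTR and halide-sensitive YFP were incubated 24 h at 37° C with compounds, then stimulated 30 min at 37° C in PBS with forskolin and genistein. Endpoint fluorescence after iodide injection was normalized to initial reading; EC50 from 4-parameter fit with bottom constrained to DMSO control.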

ΔF508 CFTR [2] = target: T1, ΔF508 CFTR; test: Potentiator activity, YFP halide (iodide) quenching assay in FRT cells expressing ΔF508 CFTR, 27° C. pre-incubation; format: cell-based; parameters: expressed in transfected cells; host or cells: Fischer rat thyroid (FRT) cells; conditions: FRT cells ΔF508 CFTR/YFP, 24 hours at 27° C., compound with forskolin 30 min
Method: Fisher rat thyroid (FRT) cells stably expressing ΔF508 CFTR and a halide-sensitive variant of yellow fluorescent protein (YFP) were seeded into microtiter plates and allowed to grow for 24 hours at 37° C. and 5% CO2, as described above. The medium was replaced with fresh medium and the cells were incubated for a further 24 hours at 27° C. and 5% CO2 to increase the level of mutant CFTR at the cell surface.
Compounds in DMSO solution were pre-diluted into phosphate-buffered saline solution (PBS) containing forskolin. Activity of CFTR was assayed by removing the medium, washing the cell monolayer with PBS, and then applying the compounds diluted in PBS containing forskolin. After 30 min of incubation at 37° C., the plates were placed in a fluorescence plate reader equipped with a reagent injector. After measuring an initial fluorescence value, iodide-containing buffer was injected and the decrease in fluorescence was followed at excitation and emission wavelengths of 485 and 530 nm, respectively.
Potentiator activity was calculated as follows. Normalized endpoint fluorescence was calculated by dividing the endpoint fluorescence after iodide injection by the initial fluorescence reading and multiplication by 100. Potentiator EC50 values were calculated by the same method as corrector EC50 values.

T1 sequence (P13569 with tags, fused parts or gaps DEL508-508): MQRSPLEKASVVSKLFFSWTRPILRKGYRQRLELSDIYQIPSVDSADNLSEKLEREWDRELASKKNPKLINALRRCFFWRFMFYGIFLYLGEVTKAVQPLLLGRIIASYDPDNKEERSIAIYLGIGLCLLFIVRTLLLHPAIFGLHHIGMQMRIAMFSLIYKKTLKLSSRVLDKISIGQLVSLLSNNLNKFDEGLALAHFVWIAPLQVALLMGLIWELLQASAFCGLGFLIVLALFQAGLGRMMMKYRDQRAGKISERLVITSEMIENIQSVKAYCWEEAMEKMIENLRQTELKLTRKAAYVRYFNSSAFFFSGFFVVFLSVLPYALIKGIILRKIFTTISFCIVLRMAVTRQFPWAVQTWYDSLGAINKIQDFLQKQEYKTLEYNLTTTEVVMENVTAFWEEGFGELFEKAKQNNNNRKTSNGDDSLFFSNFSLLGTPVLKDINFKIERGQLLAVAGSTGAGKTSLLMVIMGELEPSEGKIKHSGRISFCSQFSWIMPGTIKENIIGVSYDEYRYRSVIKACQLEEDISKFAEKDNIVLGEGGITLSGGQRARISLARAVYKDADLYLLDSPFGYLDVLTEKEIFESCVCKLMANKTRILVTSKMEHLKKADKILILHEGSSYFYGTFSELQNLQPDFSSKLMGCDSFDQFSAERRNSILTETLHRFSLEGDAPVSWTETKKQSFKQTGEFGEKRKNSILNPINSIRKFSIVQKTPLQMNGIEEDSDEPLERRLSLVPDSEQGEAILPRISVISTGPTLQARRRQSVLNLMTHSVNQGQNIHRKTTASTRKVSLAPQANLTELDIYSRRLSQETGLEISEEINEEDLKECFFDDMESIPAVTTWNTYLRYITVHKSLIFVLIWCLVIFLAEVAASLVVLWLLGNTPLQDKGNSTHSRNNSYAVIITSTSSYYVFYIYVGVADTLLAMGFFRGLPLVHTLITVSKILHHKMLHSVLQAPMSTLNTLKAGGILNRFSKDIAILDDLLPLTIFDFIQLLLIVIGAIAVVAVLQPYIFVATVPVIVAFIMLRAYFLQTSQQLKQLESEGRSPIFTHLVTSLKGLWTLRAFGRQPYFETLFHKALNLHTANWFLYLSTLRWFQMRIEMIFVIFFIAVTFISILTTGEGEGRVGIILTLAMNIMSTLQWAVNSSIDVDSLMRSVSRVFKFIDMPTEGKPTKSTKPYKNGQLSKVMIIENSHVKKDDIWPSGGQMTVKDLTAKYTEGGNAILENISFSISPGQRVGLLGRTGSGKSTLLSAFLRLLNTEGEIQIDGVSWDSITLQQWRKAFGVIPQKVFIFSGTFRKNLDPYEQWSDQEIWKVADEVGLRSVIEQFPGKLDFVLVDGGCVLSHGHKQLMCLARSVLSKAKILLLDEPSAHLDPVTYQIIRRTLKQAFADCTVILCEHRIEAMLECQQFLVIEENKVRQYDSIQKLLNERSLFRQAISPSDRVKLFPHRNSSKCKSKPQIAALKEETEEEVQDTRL

Row | SMILES | EC50 (ΔF508 CFTR [1]) | EC50 (ΔF508 CFTR [2])
1 | CCC(C)Cn1cc(-c2ccc(Cl)cc2)c2c(N)ncnc21 (centres unmarked) [compound 289] | 5 to 10 µM | 2 to 5 µM
2 | CCn1nc(Sc2ccc(F)cc2)c2c(N)ncnc21 [compound 208] | > 15 µM | < 2 µM
3 | CCn1nc(-c2ccc(Cl)cc2)c2c(N)ncnc21 [compound 67] | > 15 µM | 2 to 5 µM
4 | CC(C)(C)n1nc(Sc2cccc(C(F)(F)F)c2)c2c(N)ncnc21 [compound 244, 1-tert-Butyl-3-(3-trifluoromethyl-phenylsulfanyl)-1H-pyrazolo[3,4-d]pyrimidin-4-ylamine] | > 15 µM | 5 to 10 µM
5 | CC(C)N1CCC(n2nc(-c3ccc(Cl)cc3)c3c(N)ncnc32)CC1 [compound 342] | > 15 µM | > 15 µM
6 | Nc1ncnc2c1c(-c1ccc(Cl)cc1)nn2C(=O)Oc1ccccc1 [compound 187] | 5 to 10 µM | > 15 µM
7 | Cc1ccc(-c2nn(C(C)(C)C)c3ncnc(NC(=O)c4ccccc4Cl)c23)cc1 [compound 99] | > 15 µM | 2 to 5 µM
8 | CC(C)C(=O)Nc1ncnc2c1c(-c1ccc(Cl)cc1)cn2C(C)C [compound 352] | < 2 µM | < 2 µM
9 | CC(=O)N1CC(n2nc(-c3ccc(Cl)cc3)c3c(N)ncnc32)C1 [Compound No. 295, 1-{3-[4-Amino-3-(4-chloro-phenyl)-pyrazolo[3,4-d]pyrimidin-1-yl]-azetidin-1-yl}-ethanone] | > 15 µM | > 15 µM
10 | CCn1nc([S+]([O-])c2ccc(F)cc2F)c2c(N)ncnc21 (centres unmarked) [compound 292] | > 15 µM | > 15 µM
11 | CCn1cc(-c2ccc(Cl)cc2)c2c(NS(C)(=O)=O)ncnc21 [Compound No. 305, N-[5-(4-Chloro-phenyl)-7-ethyl-7H-pyrrolo[2,3-d]pyrimidin-4-yl]-methanesulfonamide] | > 15 µM | > 15 µM
12 | CC(C)(C)n1nc(Oc2ccc(F)c(F)c2)c2c(N)ncnc21 [compound 174] | > 15 µM | < 2 µM
13 | CC(C)(C1CC1)n1cc(-c2ccc(Cl)cc2)c2c(N)ncnc21 [compound 351] | 2 to 5 µM | < 2 µM
14 | CC(C)(C)n1nc(Oc2cccc(OC(F)(F)F)c2)c2c(N)ncnc21 [compound 194] | > 15 µM | > 15 µM
15 | Cn1cc(-c2ccc(Cl)cc2)c2c(N)ncnc21 [compound 310] | < 2 µM | > 15 µM
16 | CC(C)(C)n1cc(-c2ccc(Cl)cc2)c2c(N)ncnc21 [Compound No. 261, 7-tert-Butyl-5-(4-chloro-phenyl)-7H-pyrrolo[2,3-d]pyrimidin-4-ylamine] | < 2 µM | < 2 µM
17 | CCn1nc(Sc2cccc(OC(F)(F)F)c2)c2c(N)ncnc21 [compound 281] | > 15 µM | > 15 µM
18 | CCn1cc(-c2ccc(Cl)cc2)c2c(NC(=O)c3ccc(C)cc3)ncnc21 [compound 298] | < 2 µM | > 15 µM
19 | CC(=O)N1CCC(n2nc(-c3ccc(Cl)cc3)c3c(N)ncnc32)CC1 [compound 302] | < 2 µM | > 15 µM
20 | CCn1nc(Sc2cccc(OC)c2)c2c(N)ncnc21 [compound 280] | > 15 µM | > 15 µM
21 | CCn1nc(S(=O)(=O)c2cccc3ccccc23)c2c(N)ncnc21 [compound 212] | > 15 µM | > 15 µM
22 | Cc1cc(Oc2nn(C(C)(C)C)c3ncnc(N)c23)ccc1F [compound 179] | > 15 µM | < 2 µM
23 | CC(C)(C)n1nc([S+]([O-])c2ccccc2)c2c(N)ncnc21 (centres unmarked) [compound 173, 3-benzenesulfinyl-1-tert-butyl-1H-pyrazolo[3,4-d]pyrimidin-4-ylamine] | > 15 µM | > 15 µM
24 | CC(C)(C)n1nc(-c2ccc(Cl)cc2)c2c(NC(=O)O[C@@H]3CCOC3)ncnc21 [compound 335] | 5 to 10 µM | > 15 µM
25 | CCn1cc(-c2ccc(Cl)cc2)c2c(NC(=O)C3CCCC3)ncnc21 [compound 350] | < 2 µM | > 15 µM
